Data published in patent US12194013B2 (SICHUAN JIUZHANG BIOLOGICAL SCIENCE AND TECHNOLOGY CO., LTD., priority 2018, dated 2025).
Marks after values point to notes of the source that are not given here.

Key:
[1] = system: human skin squamous cell carcinoma A431 cells; assay: Detecting apoptosis by flow cytometry (Annexin V-FITC/PI); type: cell-based; conditions: 72 h
Experimental: (§1) A431 cell lines were seeded in IMDM medium, containing 10% fetal bovine serum, 100 U·ml^−1 penicillin, and 100 μg·ml^−1 streptomycin, and then cultured in 37° C., 5% CO2 incubator. Cells were passaged one generation at 48-72 h, and the cells in the logarithmic growth phase were collected for the experiment.
The cells of each group treated with different concentrations of test substance for 72 h were collected and made into single cell suspension. The living cells were labeled with Annexin V-FITC and PI. After mixing, the cells were incubated in dark for 15 min at room temperature, and then 1× binding buffer was added and mixed, before the apoptotic cells were detected by flow cytometry and analyzed by Multicyc AV software.

[2] = system: human skin squamous cell carcinoma A431 cells; assay: Inhibition of cell proliferation (MTT method); type: cell-based; conditions: 72 h
Experimental: as §1
The cells in logarithmic growth phase were inoculated on 96 well plate and further cultured for 24 hours, then divided into experimental groups and blank control group. […] The blank control group was added with the same volume of IMDM culture medium without test substance. Six multiple wells were set for each concentration. After 72 hours, the newly prepared MTT solution was added. After further culturing for 4 h, DMSO solution was added and shook, so that the crystals were fully dissolved. The absorbance value (A570 nm) of each well was measured on the microplate reader.

[3] = system: head and neck squamous cell carcinoma SCCVII cell lines; assay: Transplanted tumor of head and neck squamous cell carcinoma SCCVII cell lines in mice; type: in vivo, mouse; conditions: 30 mg·kg^−1 intraperitoneally once a day; for Tumor volume / Tumor weight / Tumor inhibition rate: C3H/HeJ mice, SCCVII; for Tumor weight: at end of experiment; for Tumor inhibition rate: from average tumor weight vs negative group
Experimental: When the cells grew vigorously, they were digested with 0.25% trypsin, washed with phosphate buffer, and prepared as cell suspension at 3×10^6 cells/ml for use.
0.1 ml cell suspension was subcutaneously injected into the armpit of the left forelimb of mice. They were randomly divided into groups, 10 mice for one group, including test drug group 1, test drug group 2, test drug group 3, test drug group 4, test drug group 5, test drug group 6, test drug group 7, and negative group (N.S.), respectively. The drug was given on the second day after inoculation. The test drug group was intraperitoneally injected at a dose of 30 mg·kg^−1, once a day, and the administration volume was 1.0 ml; in the negative group, the same volume of normal saline was intraperitoneally injected, once a day.
The tumor volume (v=0.52×the long diameter of transplanted tumor L×the shortest diameter of transplanted tumor W^2) was measured on the 5th day after inoculation, and the mice were weighed every three days. When the tumor volume of the negative group was about 1.0 cm^3, the experiment was stopped, and the mice were killed by cervical dislocation and weighed.

Compound	Apoptosis rate of each experimental group ([1]; 1 μg/ml)	Apoptosis rate of each experimental group ([1]; 2 μg/ml)	Apoptosis rate of each experimental group ([1]; 4 μg/ml)	Apoptosis rate of each experimental group ([1]; 8 μg/ml)	Apoptosis rate of each experimental group ([1]; 16 μg/ml)	Apoptosis rate of each experimental group ([1]; 32 μg/ml)	Apoptosis rate of each experimental group ([1]; 64 μg/ml)	Apoptosis rate of each experimental group ([1]; 128 μg/ml)	inhibitory effect on the tumors in mice transplanted with SCCVII cell lines, compared with the negative group (in words) [3]	Tumor volume ([3]; 5 d after inoculation)	Tumor volume ([3]; 8 d after inoculation)	Tumor volume ([3]; 10 d after inoculation)	Tumor volume ([3]; 13 d after inoculation)	Tumor volume ([3]; 15 d after inoculation)	Tumor volume ([3]; 18 d after inoculation)	Tumor weight [3]	Tumor inhibition rate [3]	also measured
O=C(/C=C/c1ccc(O)cc1)O[C@@H]1C[C@](O)(C(=O)O)C[C@@H](O)[C@H]1O [Coumaroylquinic acid]	0.53 ± 0.03%	0.55 ± 0.05%	0.56 ± 0.04%	0.64 ± 0.13%	0.69 ± 0.41%	1.37 ± 0.36%	2.26 ± 0.69%	3.07 ± 1.23%	not obvious	0.124 ± 0.047 cm^3	0.258 ± 0.121 cm^3	0.369 ± 0.114 cm^3	0.604 ± 0.225* cm^3	0.653 ± 0.111* cm^3	0.811 ± 0.108* cm^3	2.11 ± 0.129^ g	13.17%	inhibitory effect on human skin squamous cell carcinoma A431 (in words) ([2]; 1-128 μg/ml): not obvious; The inhibition rate of each experimental group ([2]; A431 cells, 1 μg/ml): 1.24 ± 0.81%; The inhibition rate of each experimental group ([2]; A431 cells, 2 μg/ml): 1.28 ± 0.69%; The inhibition rate of each experimental group ([2]; A431 cells, 4 μg/ml): 1.33 ± 0.42%; The inhibition rate of each experimental group ([2]; A431 cells, 8 μg/ml): 2.41 ± 0.58%; The inhibition rate of each experimental group ([2]; A431 cells, 16 μg/ml): 2.62 ± 0.86%; The inhibition rate of each experimental group ([2]; A431 cells, 32 μg/ml): 5.77 ± 0.92%; The inhibition rate of each experimental group ([2]; A431 cells, 64 μg/ml): 6.83 ± 1.02%; The inhibition rate of each experimental group ([2]; A431 cells, 128 μg/ml): 8.11 ± 0.63%; Tumor volume ([3]; 22 d after inoculation): 0.954 ± 0.203* cm^3
O=C(/C=C/c1ccc(O)c(O)c1)O[C@@H]1C[C@](O)(C(=O)O)C[C@@H](O)[C@H]1O [Chlorogenic acid]	0.57 ± 0.04%	0.57 ± 0.05%	0.61 ± 0.06%	0.71 ± 0.11%	1.99 ± 0.57%	4.56 ± 1.08 %	4.73 ± 1.22 %	4.87 ± 0.74 %	significant differences	0.124 ± 0.083 cm^3	0.222 ± 0.079 cm^3	0.347 ± 0.102 cm^3	0.436 ± 0.172* cm^3	0.483 ± 0.136* cm^3	0.545 ± 0.224* cm^3	1.43 ± 0.074 g	41.15%	inhibition at 1 µg/mL ([2]; Homo sapiens, A-431, A431 cells, 1 μg/ml, read-out: The inhibition rate of each experimental group): 1.12 ± 0.47%; inhibition at 2 µg/mL ([2]; Homo sapiens, A-431, A431 cells, 2 μg/ml, read-out: The inhibition rate of each experimental group): 1.38 ± 0.53%; inhibition at 4 µg/mL ([2]; Homo sapiens, A-431, A431 cells, 4 μg/ml, read-out: The inhibition rate of each experimental group): 5.63 ± 2.29%; inhibition at 8 µg/mL ([2]; Homo sapiens, A-431, A431 cells, 8 μg/ml, read-out: The inhibition rate of each experimental group): 11 ± 4.71%; inhibition at 16 µg/mL ([2]; Homo sapiens, A-431, A431 cells, 16 μg/ml, read-out: The inhibition rate of each experimental group): 18.6 ± 4.82%; inhibition at 32 µg/mL ([2]; Homo sapiens, A-431, A431 cells, 32 μg/ml, read-out: The inhibition rate of each experimental group): 24.5 ± 9.69%; inhibition at 64 µg/mL ([2]; Homo sapiens, A-431, A431 cells, 64 μg/ml, read-out: The inhibition rate of each experimental group): 31.4 ± 7.35%; inhibition at 128 µg/mL ([2]; Homo sapiens, A-431, A431 cells, 128 μg/ml, read-out: The inhibition rate of each experimental group): 36.3 ± 10.8%
